The source of these data is US4042702A, “Halogen pyrazole derivatives, a method for producing these halogen pyrazole derivatives, medicaments containing and methods of using them” (Byk Gulden Lomberg Chemische Fabrik GmbH, priority 1973, dated 1977).

In data set [1] the test system is carrageenin edema of the rear paw of the rat. Put plainly: Retardation of the Carrageenin Edema of the rear paw of the rat. The following applies: for ED25: po, rat, single administration, mean retardation of 25 % 3 and 5 hours after administration; for relative effect (Retardation of the Carrageenin Edema): relative to phenyl butazone (I) = 1.0. It counts as in vivo. As for the experimental part: (§1) The antiinflammatory action of the standard preparation and the compounds of this invention, respectively, was determined
on the retarding inflammation at the carrageenin edema of the rear paw of the rat [Winter et al. Proc. Soc. exp. Biol. Med. 111 (1962) 544], wherein in table 2 those doses are shown which cause a mean retardation of 25 % 3 and 5 hours after single administration of the substance to be tested;
In general terms: The carrageenan paw model is a standard test of acute inflammation.

Data set [2] can be described thus: in vivo. The following applies: mouse, po.
Data set [3] deals with ultraviolet erythema of the skin on the back of the guinea pig. The data set is described as follows: Retardation of the UV-Erythema (skin on the back of the guinea pig). The following applies: for ED25: Cavia porcellus, light or radiation study, po, guinea pig, retardation of 25 % 5 hours after irradiation; for relative effect (Retardation of the UV-Erythema): relative to phenyl butazone (I) = 1,0. It counts as in vivo. As for the experimental part: as §1
on the retardation at the ultraviolet erythema of the skin on the back of the guinea pig [Winder et al. Arch. int. Pharmacodyn. 116 (1958) 261], wherein in table 1 those doses are shown which cause a retardation of 25 % 5 hours after irradiation;

Data set [4] deals with granulation tissue formation (cotton granuloma) in rats. The data set is described as follows: Retardation of the granulation tissue formation (cotton granuloma, chronic inflammation model). The data set is classed as in vivo, rat. The following applies: for ED20: po, 168 h, 7 × p.o., rats, 20% inhibition, cotton granuloma; for relative effect (Retardation of the granulation tissue formation): relative to phenyl butazone (I) = 1.0. As for the experimental part:
as §1
on a chronic inflammation model (cotton granuloma) wherein the influence of the compounds on the granulation tissue formation after subcutaneous implantation of cotton plugs in rats was studied after daily administration on 7 following days in taking pattern from the method described by Winter et al. [J. Pharmacol. exp. Therap.

A further data set has as its system rats. The following applies: 7 × p.o., 5 % of animals died within 10 days.
A short description of data set [5]: in vivo. The following applies: rat, po.

Broadly, the LD50 is the dose expected to kill half of the subjects tested. Low values mean greater toxicity, high ones lower toxicity. Consider `COc1ccc(-c2nn(-c3ccccc3)c(Cl)c2CC(=O)O)cc1` [IV, 5-chloro-3-p-methoxyphenyl-1-phenyl-pyrazole-4-acetic acid], for which, in data set [1], the ED25 is 12 mg/kg and the “relative effect (Retardation of the Carrageenin Edema)” value was determined as 0.8. Moreover, in “in vivo [2]”, the LD50 at 240 h stood at 1100 mg/kg and the selectivity ratio is 91.7.
As for `CCCCC1C(=O)N(c2ccccc2)N(c2ccccc2)C1=O` [I, phenyl butazone, reference compound], in data set [3], the ED25 stood at 1 mg/kg and the “relative effect (Retardation of the UV-Erythema)” value is given as 1,0. Further, in data set [4], the ED20 is 100 mg/kg/day and the “relative effect (Retardation of the granulation tissue formation)” value is 1.0. Moreover, in data set [1], the ED25 is 10 mg/kg and the “relative effect (Retardation of the Carrageenin Edema)” value was determined as 1.0.
For the compound `O=C(O)Cc1c(-c2ccccc2)nn(-c2ccccc2)c1Cl` [III, 5-chloro-1,3-diphenyl-pyrazole-4-acetic acid], in data set [3], the ED25 amounted to 0.25 mg/kg and the “relative effect (Retardation of the UV-Erythema)” value turned out to be 4.0. In data set [4], the ED20 was 8 mg/kg/day and the “relative effect (Retardation of the granulation tissue formation)” value is listed as 12.5. For the same compound, in data set [1], the ED25 amounted to 1 mg/kg and the “relative effect (Retardation of the Carrageenin Edema)” value worked out at 10.0. For the same compound, the LD5 with rats was 100 mg/kg/die. Also, the selectivity ratio in the data set “in vivo [5]” came to 12.5. In the data set “in vivo [2]”, the median lethal dose (LD50) at 240 h worked out at 1200 mg/kg and the selectivity ratio turned out to be 1200.
On to `O=C(O)Cc1c(-c2ccc(Cl)cc2)nn(-c2ccccc2)c1Cl` [II, 5-chloro-3-p-chlorophenyl-1-phenyl-pyrazole-4-acetic acid], for which, in data set [3], the ED25 came out at 0.15 mg/kg and the “relative effect (Retardation of the UV-Erythema)” value is reported as 6.7. Further, in data set [4], the ED20 is 3 mg/kg/day and the “relative effect (Retardation of the granulation tissue formation)” value is given as 33.3. In addition, in data set [1], the ED25 turned out to be 1.5 mg/kg and the “relative effect (Retardation of the Carrageenin Edema)” value came out at 6.7. In the data set with rats, this compound returned an LD5 of 18 mg/kg/die. Also, the selectivity ratio in “in vivo [5]” came to 6. In addition, in “in vivo [2]”, the median lethal dose (LD50) at 240 h was 530 mg/kg and the selectivity ratio was determined as 353.
